Assay results taken from patent US20070155772A1, “Use of genetic polymorphisms that associate with efficacy of treatment of inflammatory disease” (priority 2003, published 2007).
“And” between values parts separate entries of the source, which are not always exact repeats. Equal values may be shown once.

Key:
[1] = test system: pediatric subjects with moderate atopic dermatitis; experiment: Phase IIIb trial, efficacy by Investigator global assessment (IGA) score on day 43; format: in vivo, human; settings: for Efficacy (IGA): number of patients that experienced efficacy / Efficacy (IGA): percent of patients that experienced efficacy: IGA score of 0 or 1 on day 43
From the text: The genetic locus was identified in a Phase IIIb trial that was designed as a head to head comparison of pimecrolimus cream 1% and tacrolimus ointment 0.03%. The six-week investigator-blinded trial of pediatric subjects with moderate atopic dermatitis explored the incidence of local application site reactions induced by the two topical macrolactams, as well as their efficacy, safety and cosmetic acceptability. Blood samples for pharmacogenetic analysis were collected from consenting participants in the clinical trial, to define a genetic basis for response to either treatment. Statistical analysis. Investigator global assessment (IGA) scores were used as the primary marker of efficacy in the pharmacogenetic studies. IGA scores at the end of the Investigator Blinded phase of the trial (Day 43) were used as the main time-point for comparison. Last observation carried forward imputations were only required for one subject at day 43. In this case, there was no IGA score available after Day 29, and the score on this day was used in place of a day 43 IGA score. IGA scores were re-coded, as was done to assess efficacy in the trial itself. An IGA score of 0 or 1 was considered successful treatment and IGA scores of 2-5 were counted as treatment failure. The severity of pruritus was also used as a marker of efficacy. Pruritus scores were dichotomized into absence (score=0) or presence (score=1, 2 or 3) of pruritus. The fisher's exact model was employed to examine the genotype effect on each efficacy variable. All statistical analyses were done using SAS version 8.2 software.

[2] = test system: pediatric subjects with moderate atopic dermatitis; experiment: Phase IIIb trial, severity of pruritus score on day 43; format: in vivo, human
From the text: The genetic locus was identified in a Phase IIIb trial that was designed as a head to head comparison of pimecrolimus cream 1% and tacrolimus ointment 0.03%. The six-week investigator-blinded trial of pediatric subjects with moderate atopic dermatitis explored the incidence of local application site reactions induced by the two topical macrolactams, as well as their efficacy, safety and cosmetic acceptability. Blood samples for pharmacogenetic analysis were collected from consenting participants in the clinical trial, to define a genetic basis for response to either treatment.
Statistical analysis. Investigator global assessment (IGA) scores were used as the primary marker of efficacy in the pharmacogenetic studies. IGA scores at the end of the Investigator Blinded phase of the trial (Day 43) were used as the main time-point for comparison. Last observation carried forward imputations were only required for one subject at day 43. In this case, there was no IGA score available after Day 29, and the score on this day was used in place of a day 43 IGA score. IGA scores were re-coded, as was done to assess efficacy in the trial itself. An IGA score of 0 or 1 was considered successful treatment and IGA scores of 2-5 were counted as treatment failure. The severity of pruritus was also used as a marker of efficacy. Pruritus scores were dichotomized into absence (score=0) or presence (score=1, 2 or 3) of pruritus. The fisher's exact model was employed to examine the genotype effect on each efficacy variable. All statistical analyses were done using SAS version 8.2 software.
Association between polymorphic markers and relief from pruritus. A secondary efficacy variable used in the trial was pruritus. An analysis was done to see if ASN60THR LTA and (−1031) TNF associated with this efficacy variable (assessed on day 43).

[3] = (−1031) TNF genotype CC, day 43
[4] = (−1031) TNF genotype CT, day 43
[5] = (−1031) TNF genotype TT, day 43
[6] = ASN60THR LTA genotype AA, day 43
[7] = ASN60THR LTA genotype AC, day 43
[8] = ASN60THR LTA genotype CC, day 43
[9] = VAL63ILE CCR2 (TWT# 47987) genotype AG, day 43
[10] = VAL63ILE CCR2 (TWT# 47987) genotype GG, day 43
[11] = all (−1031) TNF genotypes, day 43
[12] = all ASN60THR LTA genotypes, day 43
[13] = all VAL63ILE CCR2 genotypes, day 43

## C=CC[C@@H]1/C=C(\C)C[C@H](C)C[C@H](OC)[C@H]2O[C@@](O)(C(=O)C(=O)N3CCCC[C@H]3C(=O)O[C@H](/C(C)=C/[C@@H]3CC[C@@H](O)[C@H](OC)C3)[C@H](C)[C@@H](O)CC1=O)[C@H](C)C[C@@H]2OC [tacrolimus]
[1]; [3]
  No success (IGA ≧ 2), number of individuals: 1
  No success (IGA ≧ 2), percent: 50%
  Success (IGA = 0 or 1), number of individuals: 1
  Success (IGA = 0 or 1), percent: 50%
[1]; [4]
  No success (IGA ≧ 2), number of individuals: 2
  No success (IGA ≧ 2), percent: 40%
  Success (IGA = 0 or 1), number of individuals: 3
  Success (IGA = 0 or 1), percent: 60%
[1]; [5]
  No success (IGA ≧ 2), number of individuals: 8
  No success (IGA ≧ 2), percent: 47%
  Success (IGA = 0 or 1), number of individuals: 9
  Success (IGA = 0 or 1), percent: 53%
[1]; [6]
  No success (IGA ≧ 2), number of individuals: 3
  No success (IGA ≧ 2), percent: 43%
  Success (IGA = 0 or 1), number of individuals: 4
  Success (IGA = 0 or 1), percent: 57%
[1]; [7]
  No success (IGA ≧ 2), number of individuals: 4
  No success (IGA ≧ 2), percent: 40%
  Success (IGA = 0 or 1), number of individuals: 6
  Success (IGA = 0 or 1), percent: 60%
[1]; [8]
  No success (IGA ≧ 2), number of individuals: 4
  No success (IGA ≧ 2), percent: 57%
  Success (IGA = 0 or 1), number of individuals: 3
  Success (IGA = 0 or 1), percent: 42%
[1]; LTB (TWT#128095) genotype AC
  No success (IGA ≧ 2), number of individuals: 3
  No success (IGA ≧ 2), percent: 60%
  Success (IGA = 0 or 1), number of individuals: 2
  Success (IGA = 0 or 1), percent: 40%
[1]; LTB (TWT#128095) genotype CC
  No success (IGA ≧ 2), number of individuals: 8
  No success (IGA ≧ 2), percent: 44%
  Success (IGA = 0 or 1), number of individuals: 10
  Success (IGA = 0 or 1), percent: 56%
[1]; Pharmacogenomics samples
  Efficacy (IGA): number of patients that experienced efficacy: 13
  Efficacy (IGA): percent of patients that experienced efficacy: 52%
[1]; Trial subjects
  Efficacy (IGA): number of patients that experienced efficacy: 27
  Efficacy (IGA): percent of patients that experienced efficacy: 40%
[1]; [9]
  No success (IGA ≧ 2), number of individuals: 2
  No success (IGA ≧ 2), percent: 20%
  Success (IGA = 0 or 1), number of individuals: 8/10 and 8
  Success (IGA = 0 or 1), percent: 80%
[1]; [10]
  No success (IGA ≧ 2), number of individuals: 9
  No success (IGA ≧ 2), percent: 69%
  Success (IGA = 0 or 1), number of individuals: 4/13 and 4
  Success (IGA = 0 or 1), percent: 31%
[1]; [11]
  No success (IGA ≧ 2), number of individuals, Total: 11
  Success (IGA = 0 or 1), number of individuals, Total: 13
[1]; [12]
  No success (IGA ≧ 2), number of individuals, Total: 11
  Success (IGA = 0 or 1), number of individuals, Total: 13
[1]; all LTB (TWT#128095) genotypes
  No success (IGA ≧ 2), number of individuals, Total: 11
  Success (IGA = 0 or 1), number of individuals, Total: 12
[1]; [13]
  No success (IGA ≧ 2), number of individuals, Total: 11
  Success (IGA = 0 or 1), number of individuals, Total: 12
[2]; Pharmacogenomics samples
  Pruritus (day 43) score 0, number of subjects: 5
  Pruritus (day 43) score 0, percent of subjects: 20%
  Pruritus (day 43) score 1, number of subjects: 10
  Pruritus (day 43) score 1, percent of subjects: 40%
  Pruritus (day 43) score 2, number of subjects: 7
  Pruritus (day 43) score 2, percent of subjects: 28%
  Pruritus (day 43) score 3, number of subjects: 3
  Pruritus (day 43) score 3, percent of subjects: 12%
[2]; Trial subjects
  Pruritus (day 43) score 0, number of subjects: 11
  Pruritus (day 43) score 0, percent of subjects: 16%
  Pruritus (day 43) score 1, number of subjects: 35
  Pruritus (day 43) score 1, percent of subjects: 50%
  Pruritus (day 43) score 2, number of subjects: 19
  Pruritus (day 43) score 2, percent of subjects: 27%
  Pruritus (day 43) score 3, number of subjects: 3
  Pruritus (day 43) score 3, percent of subjects: 4%
